Literature values, collected in US20140366440A1, “METHOD FOR PRODUCING CLONE SEEDLINGS” (OKAYAMA PREFECTURE, priority 2009, published 2014).

Experiments:
[1] = system: callus of a tobacco plant; conditions: cited from earlier work
calluses of a rice plant = conditions: medium containing glutathione; cited from earlier work
[2] = system: calluses of a Russell prairie gentian; conditions: medium containing glutathione; cited from earlier work
[3] = system: Eucalyptus globulus elite tree; conditions: in the presence of auxin; Sotelo and Monza, Agrociencia (2007); cited from earlier work

N[C@@H](CCC(=O)N[C@@H](CS)C(=O)NCC(=O)O)C(=O)O [glutathione]
forming an adventitious bud from callus ([1]; addition of glutathione of 1 mM): inhibits | redifferentiation of callus (calluses of a rice plant): promotes redifferentiation | redifferentiation of callus [2]: promotes redifferentiation

CCCCS(=N)(=O)CCC(N)C(=O)O (centres unmarked) [buthionine sulfoximine (BSO), buthionine sulfoximine, reference compound]
number of differentiation of adventitious buds per callus ([1]; addition of BSO): remarkably increases

auxin
rooting rate [3]: ≤ 25%
